In US10525016B2, “Nutritional compositions containing an elevated level of inositol and uses thereof” (Mead Johnson Nutrition Company, priority 2015, dated 2020):

Assays:
oligodendrocytes (Oligo) = assay: inositol on purified oligodendroglial cultures: Oligo number (MBP staining); assay type: cell-based
Procedure: FIG. 1 illustrates the functional implications of inositol in oligodendroglia survival and proliferation. Inositol was added to purified oligodendroglial cultures and cells were analyzed for effects on proliferation, survival and differentiation by immunohistochemistry under the fluorescent microscopy. OPCs were analyzed by staining with antibody against PDGFRa and visualized in green fluorescence; and oligodendrocytes with that against MBP in red. […] Depletion of inositol in the medium results in a fifty percent loss of oligodendrocyte precursor cells and thirty percent loss in oligodendrocytes.
It may relate to the different mechanisms by which the OPCs respond to higher level of inositol and to the PDGF. Taken together, it is a novel finding that inositol at higher level promotes OPCs differentiation into mature Oligo.

[1] = tested on: oligodendrocyte precursor cells (OPCs); assay: inositol on purified oligodendroglial cultures: OPC number (PDGFRa staining); assay type: cell-based
Procedure: FIG. 1 illustrates the functional implications of inositol in oligodendroglia survival and proliferation. Inositol was added to purified oligodendroglial cultures and cells were analyzed for effects on proliferation, survival and differentiation by immunohistochemistry under the fluorescent microscopy. OPCs were analyzed by staining with antibody against PDGFRa and visualized in green fluorescence; and oligodendrocytes with that against MBP in red. […] Depletion of inositol in the medium results in a fifty percent loss of oligodendrocyte precursor cells and thirty percent loss in oligodendrocytes. […] A culture condition containing 40 μM inositol in which the count of the numbers of living OPCs was normalized as 1, as a baseline control. The beginnings of culture of OPCs are equal in terms of OPC number in culture dish in all conditions. Inositol was added to each OPC culture at zero, 200 nM, 1 μM, 10 μM, 40 μM, 100 μM, and 200 μM. Since the OPCs only respond to platelet-derived growth factor PDGF, a potent mitogen, for proliferation, the condition containing 40 μM inositol and PDGF was set as a positive control. […] Such a positive effect reached about 70% of that in the positive control. […] The results are graphically illustrated in FIG. 2

[2] = tested on: primary hippocampal neurons; assay: synaptic development in primary hippocampal neurons (Bassoon/Homer immunostaining); assay type: cell-based, rats
Procedure: Primary hippocampal neurons were prepared from rats at E18. In brief, dissected hippocampi were incubated in 0.05% trypsin at 37° C. for 20 minutes and plated at a density of ˜30,000 cells per coverslip. Dissociated cells were plated on poly-L-lysine and incubated in a cell culture incubator with 5.0% CO2. Cytosine arabinoside was added at a final concentration of 2 μM per well 2 days in vitro to prevent glia cell overgrowth. For studies of inositol, neurons were either grown in inositol-free medium or in inositol-free medium supplemented with 40 μm inositol. After day 4 in vitro, neurons were grown either in inositol-free medium or in inositol-free medium supplemented with 40 μm or 200 μM inositol. At the first time of treatment at 4 days in vitro, the entire medium was exchanged for fresh medium containing nutrients, or control medium without nutrients. At the time of subsequent nutrient additions, approximately ½ of the medium was exchanged and replaced with nutrient-containing medium or control medium without nutrients. Neurons were processed for immunostaining at 14 days in vitro, i.e. after 10 days of chronic treatment. […] We determined this both by automated quantitative immunostaining for the presynaptic marker Bassoon or excitatory postsynaptic Homer, as shown in FIGS. 6 and 7 (p<0.05). […] Further, the experiment supports that the size of postsynaptic sites is larger when inositol is added, indicating more efficient synaptic transmission (p<0.05) (see, FIG. 9). Confocal imaging was performed on a Leica TCS SPE DM2500 microscope equipped with one spectral PMT. Fluorochromes imaged include Alexa 488, Alexa 555, and Alexa 647 (Invitrogen). Green fluorescence represents Bassoon presynaptic, red Homer postsynaptic, blue MAP2 dendrites. […] There was noticeable lack of growth and synapses which was visible while imaging.

[3] = tested on: oligodendrocyte-DRG cocultures; assay: dose-response of inositol on oligodendrocyte-DRG coculture: myelin deposition and extent; assay type: cell-based
Procedure: FIG. 4 illustrates the utility of dual-fluorescence labeling of OPCs in green and oligodendrocytes (Oligo) in red (left), as well as myelin deposition along the DRG neuronal fibers in red (right). It is to examine a dose-response of the inositol on oligodendrocyte-DRG coculture. Inositol was added to purified oligodendrocyte-DRG cocultures and cells were analyzed for effects on proliferation, survival differentiation and myelination. […] FIG. 5 illustrates the inositol effects on the control myelin extent in a dose-responsive manner. In the coculture system, neurofibers were included to validate the effects on myelin extent. […] Taken together, oligodendroglia rely on neuronal inositol for survival, proliferation, differentiation and the instruction of the generation of the appropriate number of […] internodes and the extent of wrapping.

[4] = depletion of inositol in the medium
[5] = increasing inositol from 40 μM to 200 μM, 14 days in vitro, p<0.05

PDGF [reference compound]
Oligo number vs baseline at 40 μM inositol (oligodendrocytes (Oligo); condition containing PDGF with 40 μM inositol, p<0.05): decreased significantly

O[C@H]1[C@H](O)[C@@H](O)[C@H](O)[C@@H](O)[C@H]1O [inositol]
OPC and oligodendrocyte health ([1]; 200 μM compared to the 40 μM in the base medium): significantly increased
loss of oligodendrocyte precursor cells [1, 4]: fifty
quantification of OPCs vs baseline control at 40 μM inositol ([1]; inositol 200 nM, p<0.05): significantly decreased
quantification of OPCs vs baseline control at 40 μM inositol ([1]; inositol 1 μM, p<0.05): significantly decreased
quantification of OPCs vs baseline control at 40 μM inositol ([1]; inositol 10 μM, p<0.05): significantly decreased
positive effect on OPCs number relative to the positive control (40 μM inositol and PDGF) ([1]; inositol 200 μM): about 70%
OPCs number vs baseline control at 40 μM inositol ([1]; inositol 200 μM, p<0.05): significantly increased
quantification of OPCs vs baseline control at 40 μM inositol ([1]; inositol at zero, p<0.05): significantly decreased
oligodendroglial survival ([1]; inositol supplementation in purified oligodendroglia cultures): significantly promotes oligodendroglial survival
overall response of OPC number to inositol ([1]; zero to 200 μM): dose-dependent manner
health of the neurons (confocal imaging) ([2]; depletion of inositol): poor health of the neurons
formation of functional synapses and overall neuron health ([2]; elevated level of inositol supplement): significantly enhances the formation of functional synapses and overall neuron health
density of synaptic specializations, excitatory postsynaptic Homer [2, 5]: substantially elevates
density of synaptic specializations, presynaptic marker Bassoon [2, 5]: substantially elevates
overall health of neurons (confocal imaging) ([2]; inositol 40 μM): significantly promotes the overall health of neurons
overall health of neurons (confocal imaging) ([2]; inositol 200 μM): significantly promotes the overall health of neurons
density of synaptic sites where both Bassoon and Homer co-localize ([2]; inositol added, p<0.05): strong inositol effect
size of postsynaptic sites ([2]; inositol added, p<0.05): larger
quantification of Oligo numbers vs baseline at 40 μM inositol (oligodendrocytes (Oligo); absence of inositol, p<0.05): significantly decreased
loss in oligodendrocytes (oligodendrocytes (Oligo); [4]): thirty
quantification of Oligo numbers vs baseline at 40 μM inositol (oligodendrocytes (Oligo); inositol 200 nM, p<0.05): significantly decreased
Oligo numbers vs baseline at 40 μM inositol (oligodendrocytes (Oligo); inositol 200 μM, p<0.05): rise and appear a statistical significance
myelin deposition along DRG neuronal fibers ([3]; absence of inositol): the amount of red labeling and appearance of myelin were inappropriate
myelin internodes formed (myelin extent) ([3]; absence of inositol, compared to control base medium at 40 μM): few myelin internodes were formed
myelin deposition along DRG neuronal fibers ([3]; baseline condition, 40 μM inositol): myelin was wrapping around the neuronal fiber
myelin deposition along DRG neuronal fibers ([3]; inositol 200 μM): more myelin has been deposited along the neuronal fibers
myelin internodes formed (myelin extent) ([3]; inositol 200 μM compared to the controls): more and longer myelin internodes
